Results on three compounds are retold here after patent US20160129034A1, “COMBINATION OF RO5503781, CAPECITABINE AND OXALIPLANTIN FOR CANCER THERAPY” (HOFFMANN-LA ROCHE INC., priority 2013, published 2016).

The test system of the test is LoVo cell line. Briefly: LoVo colorectal xenograft in mice: tumor growth inhibition and survival. The format is in vivo. The following applies: for % Inhibition (EOS) / % T/C (EOS): end of study; for Mean Tumor Volume: in mm³ (unit assumed). The protocol: The LoVo cell line was selected for implantation in mice as it is has activation of the p53-MDM2 pathway but lacks MDM2 amplification or overexpression, which therefore is felt to be more reflective of clinical reality of the colorectal cancer patient population of interest.
Compound A and the capecitabine/oxaliplatin formulations were as follows. If not explicitly indicated otherwise, the amounts provided below are concentrations [mg/ml]. Compound A is used at concentrations of 10 mg/ml and 12.5 mg/ml. Capecitabine is used at concentrations of 12.5 mg/ml, 25 mg/ml and 50 mg/ml. Oxaliplatin is dosed at 5 mg/kg. The vehicle solutions for compound A and capecitabine are as follows:
The following treatment groups were used in the study • 1. Vehicle Control qd×5 po+qd×14 po • 2. Compound A 80 mg/kg qd×5 po • 3. Compound A 100 mg/kg qweekly×3 po • 4. Capecitabine 200 mg/kg qd×14 po • 5. Oxaliplatin 5 mg/kg qweekly ip×2 • 6. Capecitabine 200 mg/kg qd×14po+Oxaliplatin 5 mg/kg qweekly ip×2 • 7. Compound A 80 mg/kg qd×5+Capecitabine 200 mg/kg qd×14 • 8. Compound A 100 mg/kg qweekly×3+Capecitabine 200 mg/kg qd×14 • 9. Compound A 80 mg/kg qd×5+Capecitabine 200 mg/kg qd×14+Oxaliplatin 5 mg/kg qweekly ip×2 • 10. Compound A 100 mg/kg qweekly×3+Capecitabine 200 mg/kg qd×14+Oxaliplatin 5 mg/kg qweekly ip×2

Where [1] appears, read: Capecitabine 200 mg/kg qdx14 po.
Setting [2] is: Oxaliplatin 5 mg/kg qweeklyx2 ip.

In the case of `CCCCCOC(=O)Nc1nc(=O)n([C@@H]2O[C@H](C)[C@@H](O)[C@H]2O)cc1F` [Capecitabine, 5′-deoxy-5-fluoro-N-[(pentyloxy)-carbonyl]-cytidine], under setting [1], the “% Increased Life Span” value is recorded as 36%, the “% Inhibition (EOS)” value is on record as 75%, the “% T/C (EOS)” value is 25% and the “Mean Tumor Volume” value came to 129.07.
As for `COc1cc(C(=O)O)ccc1NC(=O)[C@@H]1N[C@@H](CC(C)(C)C)[C@](C#N)(c2ccc(Cl)cc2F)[C@H]1c1cccc(Cl)c1F` [Cpd. A, 4-{[(2R,3S,4R,5S)-4-(4-Chloro-2-fluoro-phenyl)-3-(3-chloro-2-fluoro-phenyl)-4-cyano-5-(2,2-dimethyl-propyl)-pyrrolidine-2-carbonyl]-amino}-3-methoxy-benzoic acid], where the note is “Cpd A 80 mg/kg qdx5 po”, the “% Increased Life Span” value came out at 21%, the “% Inhibition (EOS)” value is listed as 64%, the “% T/C (EOS)” value amounted to 38% and the “Mean Tumor Volume” value is given as 130.73. In addition, where the note is “Cpd A 100 mg/kg qwklyx3 po”, the “% Increased Life Span” value was 21%, the “% Inhibition (EOS)” value is on record as 60%, the “% T/C (EOS)” value amounted to 40% and the “Mean Tumor Volume” value was 130.23.
On to `O=C(O)C(=O)O.[NH-][C@@H]1CCCC[C@H]1[NH-].[Pt+2]` [Oxaliplatin], for which, under setting [2], the “% Increased Life Span” value turned out to be 0%, the “% Inhibition (EOS)” value was 23%, the “% T/C (EOS)” value amounted to 77% and the “Mean Tumor Volume” value was 130.60.
